Source: publication PMC10897196, “Structure–activity characteristics of phenylalanine analogs selectively transported by L-type amino acid transporter 1 (LAT1)” (Scientific Reports, 2024)
Like-named read-outs stand apart in the source and are kept apart here.

Target: T1, human LAT1 (Homo sapiens, UniProt Q01650)
T1 construct: expressed in transfected cells
Experiment: Inhibition of L-[14C]leucine uptake in HEK293-hLAT1 cells
Type: cell-based
Settings: for Ki: L-[14C]leucine uptake
Source text: In this study, we used the HEK293 cells stably expressing human LAT1 or human LAT2, which form a heterodimeric complex with endogenous 4F2hc (CD98hc), required for plasma membrane localization. We first explored the impact of halogen group positioning in the benzene ring of Phe (Fig. 1) on its interaction with LAT1 and LAT2. […] We conducted inhibition experiments to measure the uptake of L-[^14C]leucine by LAT1 and L-[^14C]alanine by LAT2 in the presence or absence of Phe derivatives with an iodo group at position 2, 3, or 4 in the benzene ring.
The inhibition experiments were performed as described previously. HEK293-hLAT1 (1.5 × 10^5 cells/well) or HEK293-hLAT2 (2 × 10^5 cells/well) cells were plated onto poly-D-lysine-coated 24-well plates (Corning, New York, USA). Following a 2-day culture period, the uptake of 1 μM L-[^14C]leucine or L-[^14C]alanine was measured for 1 min in the absence or presence of non-radiolabeled test compounds at concentrations of 10, 30, and 100 μM. Radioactivity was quantified using a β-scintillation counter (LSC-3100; Aloka, Tokyo, Japan), and protein concentrations were determined with a Micro BCA Protein Assay Kit (Thermo Fisher Scientific, Rockford, IL). To calculate Ki values, the concentration-dependent uptake of L-[^14C]leucine or L-[^14C]alanine was analyzed in the presence and absence of test compounds[49]. The data were plotted against substrate concentration and fitted to Michaelis–Menten kinetics. Ki values were derived using nonlinear regression analysis with the enzyme kinetics inhibition module in GraphPad Prism software (Version 10.0.2; GraphPad Software Inc., San Diego, CA, USA).

T1 sequence (Q01650 whole entry): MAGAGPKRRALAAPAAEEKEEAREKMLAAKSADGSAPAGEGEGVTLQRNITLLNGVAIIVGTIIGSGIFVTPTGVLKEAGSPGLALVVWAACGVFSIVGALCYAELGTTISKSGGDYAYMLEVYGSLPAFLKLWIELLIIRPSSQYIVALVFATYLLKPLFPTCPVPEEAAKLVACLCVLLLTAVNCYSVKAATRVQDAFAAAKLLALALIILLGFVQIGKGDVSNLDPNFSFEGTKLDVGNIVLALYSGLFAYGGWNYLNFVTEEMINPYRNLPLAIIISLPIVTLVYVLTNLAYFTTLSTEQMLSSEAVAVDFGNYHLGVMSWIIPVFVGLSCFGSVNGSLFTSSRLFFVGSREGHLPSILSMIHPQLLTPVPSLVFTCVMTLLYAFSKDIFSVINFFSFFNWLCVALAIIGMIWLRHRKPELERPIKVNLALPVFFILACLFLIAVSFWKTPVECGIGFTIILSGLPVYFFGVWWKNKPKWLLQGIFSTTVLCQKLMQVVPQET
T1 sequence (P08195 102-630 partner): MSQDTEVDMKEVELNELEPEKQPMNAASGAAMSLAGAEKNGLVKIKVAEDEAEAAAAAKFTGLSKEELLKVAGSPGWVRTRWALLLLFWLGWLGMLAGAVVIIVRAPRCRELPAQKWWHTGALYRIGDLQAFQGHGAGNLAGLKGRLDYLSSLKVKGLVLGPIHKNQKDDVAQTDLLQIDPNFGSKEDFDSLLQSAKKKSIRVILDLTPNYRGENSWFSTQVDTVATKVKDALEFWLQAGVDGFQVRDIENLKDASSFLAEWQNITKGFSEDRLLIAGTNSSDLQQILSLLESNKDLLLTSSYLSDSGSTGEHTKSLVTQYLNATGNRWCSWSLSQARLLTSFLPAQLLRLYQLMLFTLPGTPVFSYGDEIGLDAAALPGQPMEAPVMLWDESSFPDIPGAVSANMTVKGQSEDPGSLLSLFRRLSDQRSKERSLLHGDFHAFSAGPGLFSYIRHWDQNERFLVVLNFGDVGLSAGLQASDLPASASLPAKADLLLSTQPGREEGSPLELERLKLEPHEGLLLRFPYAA

Inhibition of LAT1-mediated L-[14C]leucine uptake (in words, rank order) (1 μM L-[14C]leucine, 1 min, compounds at 10, 30, 100 μM): inhibit
Ki (Ki for LAT1 calculated at 100 μM of compound, HEK293-hLAT1, inhibitor at 100 μM): 78.2 ± 13.9 µM
Ki (Ki for LAT1 calculated at 300 μM of compound, HEK293-hLAT1, inhibitor at 300 μM): 66.7 ± 7.08 µM
Mode of inhibition of LAT1 (Lineweaver–Burk plot) (L-[14C]leucine 50, 100, 200, 400 μM): competitive manner
Ki (HEK293-hLAT1, mean ± S.E.M., n = 3–4, read-out: Ki (μM) LAT1): 78.2 ± 13.9 µM
Ki ratio (LAT2/LAT1) (LAT1 selectivity, LAT2 Ki over LAT1 Ki): 47.98
SMILES: N[C@]1(C(=O)O)CCc2ccccc2C1 [bicyclic-Phe, (R)-2-amino-1,2,3,4-tetrahydro-2-naphthoic acid]
